Laboratory results as given in patent US20090264387A1, “ESTRA-1,3,5(10)-TRIENE DERIVATIVES FOR CONTRACEPTION” (GRUNENTHAL GMBH, priority 2008, published 2009).

Target: T1, recombinant human progestin receptor (Homo sapiens, UniProt P06401)
T1 sequence (P06401 1-933): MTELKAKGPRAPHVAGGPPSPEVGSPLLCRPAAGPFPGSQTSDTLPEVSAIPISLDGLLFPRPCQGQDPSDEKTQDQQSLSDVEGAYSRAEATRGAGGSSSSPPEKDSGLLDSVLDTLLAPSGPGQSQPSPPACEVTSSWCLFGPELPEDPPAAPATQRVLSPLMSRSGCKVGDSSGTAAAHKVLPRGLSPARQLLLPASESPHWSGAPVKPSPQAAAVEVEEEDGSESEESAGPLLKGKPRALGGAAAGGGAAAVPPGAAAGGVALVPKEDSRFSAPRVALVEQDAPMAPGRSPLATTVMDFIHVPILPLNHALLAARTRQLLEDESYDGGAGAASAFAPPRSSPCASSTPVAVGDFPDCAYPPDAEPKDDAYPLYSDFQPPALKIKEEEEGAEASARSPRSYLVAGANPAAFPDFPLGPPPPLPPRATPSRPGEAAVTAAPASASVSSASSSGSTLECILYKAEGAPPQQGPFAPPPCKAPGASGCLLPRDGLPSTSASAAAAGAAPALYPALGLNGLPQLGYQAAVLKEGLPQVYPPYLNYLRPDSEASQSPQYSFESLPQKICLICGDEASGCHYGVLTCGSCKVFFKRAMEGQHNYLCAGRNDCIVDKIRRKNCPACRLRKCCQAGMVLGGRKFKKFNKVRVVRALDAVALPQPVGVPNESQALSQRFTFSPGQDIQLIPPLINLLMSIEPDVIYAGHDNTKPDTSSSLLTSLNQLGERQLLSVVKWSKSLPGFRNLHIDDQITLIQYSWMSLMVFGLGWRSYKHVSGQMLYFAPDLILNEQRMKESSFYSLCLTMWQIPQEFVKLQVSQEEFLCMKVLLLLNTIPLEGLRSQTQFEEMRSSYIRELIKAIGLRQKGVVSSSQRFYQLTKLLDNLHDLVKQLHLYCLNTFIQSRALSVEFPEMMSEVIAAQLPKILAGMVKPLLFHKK
Assay: Relative binding affinity to recombinant human progestin receptor
Excerpt: Methods of determining affinity to the aforementioned receptors are known to the person skilled in the art. In this context, reference can be made, for example, to EP-A 808 845; Lacroix et al., Bioorganic & Medicinal Chemistry 1999 (7) 2329-2341; and D. Philibert et al., Gynecol Endocrinol 1999, 13, 316-26.
The relative binding affinities of (2S,17S)-17-(2-hydroxypropanoyl)-3-hydroxy-17-methyl-estra-1,3,5(10),9(11)-tetraene [compound of the general formula (IV)] to the recombinant human progestin receptor, mineral corticoid receptor, androgen receptor, glucocorticoid receptor and oestrogen receptor were determined experimentally (cf. D. Philibert et al., Gynecol Endocrinol 1999, 13, 316-26).

C[C@H](O)C(=O)[C@@]1(C)CC[C@H]2[C@@H]3CCc4cc(O)ccc4C3=CC[C@@]21C [(2S,17S)-17-(2-hydroxypropanoyl)-3-hydroxy-17-methylestra-1,3,5(10),9(11)-tetraene]
affinity to the progestin receptor (relative binding affinity) (recombinant human receptor, progesterone reference standard): clear affinity
selectivity for the progestin receptor (versus other steroid receptors (mineral corticoid, androgen, glucocorticoid, oestrogen), quotient of relative binding affinities): high selectivity
